“Also recorded” adds a separate entry of the source.
Columns and labels:
EMT6 cells = format: cell-based, mouse
EMT6 mammary carcinoma = conditions: mouse, in vivo
TNFα [1] = conditions: mouse, in vivo, ip
TNFα [2] = conditions: mouse, in vivo, ip; remark: listed apart in the source
[3] = system: CT-2A, K1580 glioblastoma cells; format: cell-based, mouse
[4] = mouse, in vivo
cancer cell lines (n=28) = format: cell-based
SNB75 cells = experiment: cells; format: cell-based; conditions: Homo sapiens, SNB-75, read-out: EC50 of SMC therapy
cancer cells [5] = format: cell-based
786-0 cells = format: cell-based
VSVΔ51 [6] = format: cell-based
VSVΔ51 [7] = conditions: mouse, 50 mg/kg
[8] = system: interferon stimulated gene (ISG) expression; format: cell-based; conditions: cells treated with VSVΔ51 and SMC, 20 hours
IFNβ = format: cell-based
[9] = system: Jak/Stat signalling downstream of IFNβ; format: cell-based
TRAIL and TNFα = format: cell-based, human
TNFα [10] = format: cell-based, mouse
cIAP1/2 = cIAP1/2 knockdown in EMT6 tumors (western blotting); format: in vivo, mouse; conditions: 50 mg/kg oral gavage
[11] = system: CT-26 mouse colon carcinoma; conditions: in vivo
[12] = mouse, in vivo; remark: listed apart in the source
[13] = system: CT-2A intracranial tumors; conditions: mouse, in vivo
cancer cells [14] = format: cell-based; remark: listed apart in the source

CC(C)Cn1cnc2c(N)nc3ccccc3c21 [imiquimod]
bystander death of SMC treated EMT6 cells (EMT6 cells): required splenocytes

poly(I:C)
tumor growth (EMT6 mammary carcinoma): no bearing on tumor growth | bystander death of SMC treated EMT6 cells (EMT6 cells): led to EMT6 cell death directly | TNFα in serum (TNFα [1]): robust expression of TNFα | TNFα levels from the brain (TNFα [2]): marked up-regulation of TNFα levels | glioblastoma cell death by brain lysates of treated mice in the presence of SMCs [3]: enhanced cell death in the presence of SMCs | toxicity of direct intracranial administration [4]: without overt toxicities

CN[C@@H](C)C(=O)N[C@H](C(=O)N1CCC[C@H]1c1nc(C(=O)c2ccc(F)cc2)cs1)C1CCCCC1 [LCL161]
cancer cell lines in which SMC treatment enhanced sensitivity to VSVΔ51 (cancer cell lines (n=28)): 54% | enhanced sensitivity: EC50 of VSVΔ51 upon SMC treatment (cancer cell lines (n=28)): 10-10,000 fold | EC50 (SNB75 cells): > 2500 nM | synergy with VSVΔ51 to cause cancer cell death (cancer cells [5]): synergize | cell death outside of the zone of virus infection (786-0 cells): dramatic cell death | VSVΔ51 infectivity in or spread through tumor cells (VSVΔ51 [6]): does not alter | growth kinetics of VSVΔ51 (VSVΔ51 [6]): does not affect the growth kinetics | viral replication and spread in vivo (VSVΔ51 [7]): No differences in viral kinetics | ISG gene expression in response to oncolytic VSV infection [8]: no bearing | IFNβ secretion (IFNβ): slightly lower levels | activation of Jak/Stat signalling downstream of IFNβ [9]: do not alter | induction of TRAIL and TNFα by IFNβ (TRAIL and TNFα): potentiated | cellular production of TNFα upon VSV infection (TNFα [10]): 5- to 7 fold percentage increase | cure rate (EMT6 mammary carcinoma): 17% | tumor growth and survival (EMT6 mammary carcinoma): decrease in the rate of tumor growth and a modest extension in survival; also recorded: slightly extended mouse survival | tumor growth rates and survival (EMT6 mammary carcinoma): slightly delayed EMT6 tumor growth rates and slightly extended the survival | duration of cIAP1/2 knockdown in tumors (cIAP1/2): at least 24 hrs | duration of cIAP1/2 knockdown in tumors, in some cases (cIAP1/2): 48 to 72 h | tumor growth rate and survival [11]: modest decrease of the tumor growth rate and a slight extension of survival | tolerability [12]: well tolerated | weight loss ([12]; po, 50 mg/kg): minimal transient weight loss | neurotoxicity [13]: did not result in any overt neurotoxicity

IFNα
tumor growth and survival (EMT6 mammary carcinoma): no effect on EMT6 tumor growth or overall survival | synergy with SMC recapitulated by recombinant cytokine (cancer cells [14]): recapitulated | neurotoxicity [13]: did not result in any overt neurotoxicity

IFNγ
synergy with SMC recapitulated by recombinant cytokine (cancer cells [14]): recapitulated

SM-164
synergy with VSVΔ51 to cause cancer cell death (cancer cells [5]): synergize

— US10441654B2 (priority 2014, dated 2019)
